Among the data in US10870647B2, “Imidazopyridine derivative, method for preparing same, and pharmaceutical composition containing same as active ingredient for preventing or treating cancer” (DAEGU-GYEONGBUK MEDICAL INNOVATION FOUNDATION, priority 2016, dated 2020) are Kd and remaining binding values, retold here.

Common to all, as to format: binding
One test has as its target T1, LCK (Homo sapiens, UniProt P06239).
T1 construct: purchased Reaction Biology Co
The test is described as follows: Enzyme inhibitory activity (Kd), Reaction Biology Co.

The next test addresses T2, FYN (Homo sapiens, UniProt P06241).
T2 construct: purchased Reaction Biology Co
Described as above.

For another test, the target named is T3, FGR (Homo sapiens, UniProt P09769).
T3 construct: purchased Reaction Biology Co
Described as above.

Another test addresses T4, HCK (Homo sapiens, UniProt P08631).
T4 construct: purchased Reaction Biology Co
The test is described as above.

In test [1] the target is T5, JAK2(JH1domain-catalytic) (Homo sapiens, UniProt O60674).
T5 construct: JAK2 (JH1domain-catalytic); purchased Reaction Biology Co
T5 sequence (O60674 849-1124 limits assumed): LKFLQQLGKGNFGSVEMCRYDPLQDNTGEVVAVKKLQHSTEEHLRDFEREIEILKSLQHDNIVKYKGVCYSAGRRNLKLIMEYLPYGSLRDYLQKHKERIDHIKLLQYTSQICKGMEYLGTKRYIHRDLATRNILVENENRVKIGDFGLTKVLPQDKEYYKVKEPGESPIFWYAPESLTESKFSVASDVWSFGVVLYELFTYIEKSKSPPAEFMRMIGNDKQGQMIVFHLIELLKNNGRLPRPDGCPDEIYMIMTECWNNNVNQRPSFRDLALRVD
Described as above.

For test [2], the target named is T6, scanMAX Kinase assay panel (Homo sapiens, UniProt Q8TDC3).
T6 construct: purchased DiscoverX
T6 sequence (Q8TDC3 1-778): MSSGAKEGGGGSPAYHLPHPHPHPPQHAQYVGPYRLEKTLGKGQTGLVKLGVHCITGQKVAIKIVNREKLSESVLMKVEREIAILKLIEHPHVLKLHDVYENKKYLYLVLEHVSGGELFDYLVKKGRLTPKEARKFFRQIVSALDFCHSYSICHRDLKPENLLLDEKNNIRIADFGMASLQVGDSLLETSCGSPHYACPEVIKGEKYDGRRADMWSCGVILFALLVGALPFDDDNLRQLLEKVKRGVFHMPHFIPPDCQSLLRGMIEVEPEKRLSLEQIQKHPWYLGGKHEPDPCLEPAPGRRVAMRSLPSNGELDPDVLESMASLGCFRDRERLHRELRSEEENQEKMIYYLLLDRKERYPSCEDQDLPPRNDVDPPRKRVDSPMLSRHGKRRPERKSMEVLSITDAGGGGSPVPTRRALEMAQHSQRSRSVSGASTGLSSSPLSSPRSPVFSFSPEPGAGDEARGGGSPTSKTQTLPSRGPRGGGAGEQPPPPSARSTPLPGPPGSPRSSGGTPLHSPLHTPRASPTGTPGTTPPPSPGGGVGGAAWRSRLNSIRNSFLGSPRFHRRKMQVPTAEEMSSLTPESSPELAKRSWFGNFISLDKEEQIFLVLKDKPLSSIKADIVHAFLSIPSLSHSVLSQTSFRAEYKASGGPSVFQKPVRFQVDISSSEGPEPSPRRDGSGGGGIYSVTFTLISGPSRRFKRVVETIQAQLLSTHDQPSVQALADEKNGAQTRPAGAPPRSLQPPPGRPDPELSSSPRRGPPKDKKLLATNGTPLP
Briefly: Kinase selectivity, scanMAX Kinase assay panel (DiscoverX), % control at 1 uM. To be noted: BRSK1; 1 uM; read-out: Percent Control (%). Summed up:
(§1)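 Single-point screen at 1 uM compound in DMSO. Lower % control means stronger inhibition, with the cutoff for activity set at <35%.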

Test [3] addresses T7, scanMAX Kinase assay panel (Homo sapiens, UniProt P07332).
T7 construct: purchased DiscoverX
Described as above. To be noted: FES; 1 uM; read-out: Percent Control (%). Summed up: as §1

Test [4] addresses T8, scanMAX Kinase assay panel (Homo sapiens, UniProt P00533, G719C).
T8 construct: purchased DiscoverX
The description is as above. To be noted: EGFR (G719C); 1 uM; read-out: Percent Control (%). The essentials:
as §1

Test [5] deals with T9, scanMAX Kinase assay panel (Homo sapiens, UniProt P10721, D816H).
T9 construct: purchased DiscoverX
T9 sequence (P10721 26-976 D816H): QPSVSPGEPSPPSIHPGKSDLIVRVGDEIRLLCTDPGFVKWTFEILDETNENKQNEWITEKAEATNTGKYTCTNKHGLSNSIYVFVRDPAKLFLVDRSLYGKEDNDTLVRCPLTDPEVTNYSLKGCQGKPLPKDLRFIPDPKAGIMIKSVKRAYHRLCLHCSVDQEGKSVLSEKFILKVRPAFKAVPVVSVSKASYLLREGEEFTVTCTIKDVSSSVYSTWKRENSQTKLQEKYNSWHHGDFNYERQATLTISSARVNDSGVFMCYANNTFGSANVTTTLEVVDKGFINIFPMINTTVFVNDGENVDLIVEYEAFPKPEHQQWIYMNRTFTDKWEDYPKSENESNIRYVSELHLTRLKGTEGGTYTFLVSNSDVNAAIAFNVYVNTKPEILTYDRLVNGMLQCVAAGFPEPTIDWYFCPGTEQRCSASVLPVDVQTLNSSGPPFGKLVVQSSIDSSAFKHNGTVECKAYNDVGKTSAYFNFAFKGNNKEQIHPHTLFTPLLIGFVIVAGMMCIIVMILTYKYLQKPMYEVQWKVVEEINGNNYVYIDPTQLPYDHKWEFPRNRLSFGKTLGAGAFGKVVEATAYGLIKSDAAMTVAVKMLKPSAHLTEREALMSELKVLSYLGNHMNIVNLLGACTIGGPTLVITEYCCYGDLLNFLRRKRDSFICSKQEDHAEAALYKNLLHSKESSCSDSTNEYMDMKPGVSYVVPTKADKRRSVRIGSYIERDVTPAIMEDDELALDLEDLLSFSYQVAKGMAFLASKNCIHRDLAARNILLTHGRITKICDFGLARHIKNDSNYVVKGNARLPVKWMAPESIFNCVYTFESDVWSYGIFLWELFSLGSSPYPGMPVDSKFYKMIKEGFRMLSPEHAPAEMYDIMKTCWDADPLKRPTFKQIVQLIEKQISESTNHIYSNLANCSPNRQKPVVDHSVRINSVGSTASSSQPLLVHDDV
Described as above. The note with it: KIT (D816H); 1 uM; read-out: Percent Control (%). The essentials:
as §1

Test [6] deals with T10, scanMAX Kinase assay panel (Homo sapiens, UniProt P57058).
T10 construct: purchased DiscoverX
T10 sequence (P57058 1-714): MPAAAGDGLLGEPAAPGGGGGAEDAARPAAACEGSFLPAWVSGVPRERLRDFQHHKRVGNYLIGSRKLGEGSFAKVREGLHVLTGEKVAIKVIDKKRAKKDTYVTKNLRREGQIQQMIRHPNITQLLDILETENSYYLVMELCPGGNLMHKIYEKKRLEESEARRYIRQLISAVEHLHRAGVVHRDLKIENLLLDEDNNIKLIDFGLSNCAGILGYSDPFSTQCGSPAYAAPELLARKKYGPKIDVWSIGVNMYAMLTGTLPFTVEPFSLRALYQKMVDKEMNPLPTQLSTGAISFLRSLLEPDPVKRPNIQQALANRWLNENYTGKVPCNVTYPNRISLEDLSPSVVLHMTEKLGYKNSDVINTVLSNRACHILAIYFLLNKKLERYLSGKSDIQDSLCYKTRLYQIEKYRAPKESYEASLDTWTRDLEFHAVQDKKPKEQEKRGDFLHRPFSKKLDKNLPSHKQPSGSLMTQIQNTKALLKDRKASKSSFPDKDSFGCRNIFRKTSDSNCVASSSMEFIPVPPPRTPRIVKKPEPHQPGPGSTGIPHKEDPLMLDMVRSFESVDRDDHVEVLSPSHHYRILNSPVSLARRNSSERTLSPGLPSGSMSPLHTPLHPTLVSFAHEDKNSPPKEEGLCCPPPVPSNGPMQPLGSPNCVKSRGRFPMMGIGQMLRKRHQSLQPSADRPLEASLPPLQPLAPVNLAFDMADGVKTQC
Described as above. The note with it: HUNK; 1 uM; read-out: Percent Control (%). Summed up: as §1

Test [7] deals with T11, scanMAX Kinase assay panel (Homo sapiens, UniProt O00238).
T11 construct: purchased DiscoverX
T11 sequence (O00238 14-502): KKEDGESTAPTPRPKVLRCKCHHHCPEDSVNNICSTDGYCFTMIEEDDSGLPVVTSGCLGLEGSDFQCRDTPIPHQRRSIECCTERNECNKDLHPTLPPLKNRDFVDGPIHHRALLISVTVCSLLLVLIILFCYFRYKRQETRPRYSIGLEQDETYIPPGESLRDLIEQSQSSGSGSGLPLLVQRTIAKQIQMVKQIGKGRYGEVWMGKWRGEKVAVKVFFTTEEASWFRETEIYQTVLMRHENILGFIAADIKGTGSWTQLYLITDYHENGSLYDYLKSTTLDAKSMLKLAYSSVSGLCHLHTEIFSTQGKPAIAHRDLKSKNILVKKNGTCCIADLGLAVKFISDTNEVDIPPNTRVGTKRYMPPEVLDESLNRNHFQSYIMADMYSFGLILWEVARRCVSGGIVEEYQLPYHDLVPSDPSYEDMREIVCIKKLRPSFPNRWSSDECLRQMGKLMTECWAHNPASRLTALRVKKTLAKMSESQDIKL
Described as above. The note with it: BMPR1B; 1 uM; read-out: Percent Control (%). Summed up:
as §1

A further test deals with T12, CSF1R (Homo sapiens, UniProt P07333).
T12 construct: purchased Reaction Biology Co
Briefly: Enzyme inhibitory activity (Kd), Reaction Biology Co.

The next test concerns the target T13, LOK (Homo sapiens, UniProt O94804).
T13 construct: purchased Reaction Biology Co
The test is described as above.

For the next test, the target named is T14, EPHB6 (Homo sapiens, UniProt O15197).
T14 construct: purchased Reaction Biology Co
Described as above.

T8 sequence (P00533 25-1210 G719C): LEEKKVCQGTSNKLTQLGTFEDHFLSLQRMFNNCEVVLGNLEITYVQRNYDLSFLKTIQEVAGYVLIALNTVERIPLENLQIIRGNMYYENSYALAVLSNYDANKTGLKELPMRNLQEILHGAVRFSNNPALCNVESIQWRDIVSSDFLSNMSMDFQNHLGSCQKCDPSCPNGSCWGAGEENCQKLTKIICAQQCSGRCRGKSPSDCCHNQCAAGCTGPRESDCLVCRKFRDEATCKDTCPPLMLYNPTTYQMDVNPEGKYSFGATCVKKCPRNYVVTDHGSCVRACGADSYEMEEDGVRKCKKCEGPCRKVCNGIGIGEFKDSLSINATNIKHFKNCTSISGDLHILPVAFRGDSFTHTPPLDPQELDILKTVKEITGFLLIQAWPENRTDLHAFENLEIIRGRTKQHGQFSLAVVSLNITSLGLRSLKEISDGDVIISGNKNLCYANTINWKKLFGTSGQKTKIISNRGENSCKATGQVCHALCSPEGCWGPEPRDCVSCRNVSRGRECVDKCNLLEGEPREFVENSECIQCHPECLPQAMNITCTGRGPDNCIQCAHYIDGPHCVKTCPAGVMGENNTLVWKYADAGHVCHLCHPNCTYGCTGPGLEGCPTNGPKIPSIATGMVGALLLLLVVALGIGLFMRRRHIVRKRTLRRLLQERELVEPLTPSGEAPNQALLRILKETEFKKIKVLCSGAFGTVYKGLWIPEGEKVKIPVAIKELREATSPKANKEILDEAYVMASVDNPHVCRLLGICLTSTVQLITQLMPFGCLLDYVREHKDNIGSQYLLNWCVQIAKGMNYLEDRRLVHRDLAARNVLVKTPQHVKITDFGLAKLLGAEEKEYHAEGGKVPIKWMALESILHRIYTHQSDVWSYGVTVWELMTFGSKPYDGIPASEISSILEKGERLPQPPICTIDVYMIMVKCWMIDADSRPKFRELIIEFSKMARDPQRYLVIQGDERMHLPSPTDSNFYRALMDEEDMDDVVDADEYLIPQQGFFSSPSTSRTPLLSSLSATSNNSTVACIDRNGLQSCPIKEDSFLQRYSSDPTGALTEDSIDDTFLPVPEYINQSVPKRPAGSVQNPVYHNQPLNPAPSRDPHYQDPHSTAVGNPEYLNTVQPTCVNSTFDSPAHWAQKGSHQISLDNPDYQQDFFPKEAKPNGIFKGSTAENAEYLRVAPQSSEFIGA
T7 sequence (P07332 whole entry): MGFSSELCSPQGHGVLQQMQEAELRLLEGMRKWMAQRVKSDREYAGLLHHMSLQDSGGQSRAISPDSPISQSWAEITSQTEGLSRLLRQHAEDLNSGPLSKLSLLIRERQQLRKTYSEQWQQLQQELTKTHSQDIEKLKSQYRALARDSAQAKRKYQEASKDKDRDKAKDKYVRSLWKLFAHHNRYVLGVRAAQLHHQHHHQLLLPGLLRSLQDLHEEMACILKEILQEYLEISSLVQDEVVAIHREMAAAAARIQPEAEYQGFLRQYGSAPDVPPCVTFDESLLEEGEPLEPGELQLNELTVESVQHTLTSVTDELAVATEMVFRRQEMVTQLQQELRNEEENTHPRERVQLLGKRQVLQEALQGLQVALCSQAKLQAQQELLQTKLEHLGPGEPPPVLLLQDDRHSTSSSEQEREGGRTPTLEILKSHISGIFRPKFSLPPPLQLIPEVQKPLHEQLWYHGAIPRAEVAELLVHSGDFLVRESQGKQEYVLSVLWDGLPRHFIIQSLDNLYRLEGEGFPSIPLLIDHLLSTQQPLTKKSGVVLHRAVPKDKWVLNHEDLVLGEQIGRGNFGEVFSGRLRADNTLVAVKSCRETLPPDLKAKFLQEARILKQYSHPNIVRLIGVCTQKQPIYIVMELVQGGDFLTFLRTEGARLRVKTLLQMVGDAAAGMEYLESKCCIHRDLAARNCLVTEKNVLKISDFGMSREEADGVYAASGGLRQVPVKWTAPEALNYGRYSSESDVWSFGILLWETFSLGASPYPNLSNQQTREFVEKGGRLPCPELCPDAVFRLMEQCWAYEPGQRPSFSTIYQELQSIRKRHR
T13 sequence (O94804 whole entry): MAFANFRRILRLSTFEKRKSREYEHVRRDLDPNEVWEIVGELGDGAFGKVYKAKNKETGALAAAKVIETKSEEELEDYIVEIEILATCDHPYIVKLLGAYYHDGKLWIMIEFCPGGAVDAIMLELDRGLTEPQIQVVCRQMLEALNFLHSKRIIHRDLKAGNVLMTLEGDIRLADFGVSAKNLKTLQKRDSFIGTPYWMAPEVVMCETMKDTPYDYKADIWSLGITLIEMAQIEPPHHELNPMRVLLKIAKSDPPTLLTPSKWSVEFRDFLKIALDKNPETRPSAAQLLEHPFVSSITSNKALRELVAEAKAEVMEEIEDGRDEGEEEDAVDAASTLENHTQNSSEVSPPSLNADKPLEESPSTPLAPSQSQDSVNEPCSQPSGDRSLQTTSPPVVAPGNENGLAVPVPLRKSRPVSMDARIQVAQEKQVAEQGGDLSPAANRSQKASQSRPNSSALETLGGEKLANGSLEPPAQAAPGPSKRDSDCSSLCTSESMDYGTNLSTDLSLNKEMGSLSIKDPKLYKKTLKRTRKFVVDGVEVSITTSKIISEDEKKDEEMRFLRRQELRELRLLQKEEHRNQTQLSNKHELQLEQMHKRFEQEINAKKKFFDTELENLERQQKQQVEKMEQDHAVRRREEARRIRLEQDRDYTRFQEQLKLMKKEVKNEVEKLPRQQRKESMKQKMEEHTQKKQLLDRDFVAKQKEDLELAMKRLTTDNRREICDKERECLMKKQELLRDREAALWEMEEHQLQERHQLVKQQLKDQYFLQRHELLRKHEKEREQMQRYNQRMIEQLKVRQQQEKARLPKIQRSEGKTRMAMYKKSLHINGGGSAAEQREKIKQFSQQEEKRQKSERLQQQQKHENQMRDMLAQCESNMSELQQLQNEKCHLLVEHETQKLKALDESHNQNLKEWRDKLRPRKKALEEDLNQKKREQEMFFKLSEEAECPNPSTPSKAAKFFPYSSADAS

As for `CCN1CCN(Cc2ccc(NC(=O)c3ccc(C)c(C#Cc4cnc5c(Nc6cnn(C)c6)cccn45)c3)cc2C(F)(F)F)CC1` [Example 8, N-(4-((4-ethylpiperazin-1-yl)methyl)-3-(trifluoromethyl)phenyl)-4-methyl-3-((8-((1-methyl-1H-pyrazol-4-yl)amino)imidazo[1,2-a]pyridin-3-yl)ethynyl)benzamide], the Kd on LCK came out at 6.4 nM; on FYN, 52 nM; on FGR, 13 nM; on HCK, 7.7 nM; in [1], 270 nM.

For `Cc1ccc(C(=O)Nc2ccc(CN3CCN(C)CC3)c(C(F)(F)F)c2)cc1C#Cc1cnc2c(Nc3cnn(C)c3)cccn12` [Example 1, 4-methyl-3-((8-((1-methyl-1H-pyrazol-4-yl)amino)imidazo[1,2-a]pyridin-3-yl)ethynyl)-N-(4-((4-methylpiperazin-1-yl)methyl)-3-(trifluoromethyl)phenyl)benzamide], the remaining binding at 1 µM was determined as 100% in test [2]; 0% in test [3]; 1% in [4]; 7% in [5]; 74% in test [6]; 99% in [7]. The Kd at CSF1R is 34 nM; at LOK, 7.3 nM; in test [1] it was 220 nM.

For `Cc1cn(-c2cc(NC(=O)c3ccc(C)c(C#Cc4cnc5c(Nc6cnn(C)c6)cccn45)c3)cc(C(F)(F)F)c2)cn1` [Example 12, 4-methyl-N-(3-(4-methyl-1H-imidazol-1-yl)-5-(trifluoromethyl)phenyl)-3-((8-((1-methyl-1H-pyrazol-4-yl)amino)imidazo[1,2-a]pyridin-3-yl)ethynyl)benzamide], the remaining binding at 1 µM in test [2] was found to be 83%; in test [3] it was 6%; in test [4], 21%; in [5] it was 70%; in [6], 79%; in test [7] it was 100%.

As for `Cc1ccc(NC(=O)C2(C(=O)Nc3ccc(F)cc3)CC2)cc1C#Cc1cnc2c(Nc3cnn(C(C)C)c3)cccn12` [Example 78], the remaining binding at 1 µM in test [2] turned out to be 100%; in test [3] it was 100%; in [4] it was 97%; in test [5] it was 63%; in [6], 93%; in test [7], 100%. The Kd on EPHB6 was found to be 15 nM; on CSF1R, 440 nM; at LOK, 37 nM.
